{
  "source": "patent US12723018B2",
  "about": "“Cinnamoyl amino acid compound and use thereof” (CHINA PHARMACEUTICAL UNIVERSITY, priority 2020, dated 2026)",
  "key": {"[1]": {"tested_on": "MPTP-induced Parkinsonian mice", "assay": "MPTP-induced Parkinsonian mouse rota-rod experiment", "type": "in vivo, C57BL/6 male mice", "settings": "2 mg/kg by gavage for 12 days before MPTP (20 mg/kg i.p. x4); tested 4 h, 24 h, 48 h, 72 h after modeling; FIG. 2", "description": "Experimental materials: 10-week-old C57BL/6 male mice (Nanjing Qinglongshan Farm), rota-rod treadmill (Beijing Zhongshi Technology), levodopa and MPTP (Sigma), test drug 4-trifluoromethyl-cinnamoyl-4-fluoro-L-phenylalanine prepared in Example 1 (Compound 2 shown), and test drug 4-hydroxy-3-methoxycinnamoyl-L-tyrosine (Compound 1 shown).\nExperimental groups: Mice were randomly divided into 5 groups, 10 mice in each group: a blank group, a model group, a 4-hydroxy-3-methoxycinnamoyl-L-tyrosine (Compound 1 shown, 2 mg/kg) group, a 4-trifluoromethyl-cinnamoyl-4-fluoro-L-phenylalanine (Compound 2 shown, 2 mg/kg) group and a levodopa (15 mg/kg) group. Pre-dosing by gavage was carried out for 12 consecutive days. The blank group and the model group were given equal doses of PBS, and modeling was performed on the 13th day. The model group and the drug group were intraperitoneally injected with MPTP (20 mg/kg), once every 2 h, for 4 consecutive injections. After modeling, behavioral tests were carried out. The behavioral performance of mice was tested with a YLS-4C mouse rota-rod treadmill at 4 h, 24 h, 48 h, and 72 h after MPTP modeling. The time from the start of rotation of the rota-rod to the time leaving the rota-rod of the test mice was taken as the latency. The test time was 180 s, and each mouse was tested 3 times to obtain an average value. […]"}, "iNOS": {"molecular_target": "T1, iNOS (Mus musculus, UniProt P29477)", "T1 sequence (P29477 1-1144)": "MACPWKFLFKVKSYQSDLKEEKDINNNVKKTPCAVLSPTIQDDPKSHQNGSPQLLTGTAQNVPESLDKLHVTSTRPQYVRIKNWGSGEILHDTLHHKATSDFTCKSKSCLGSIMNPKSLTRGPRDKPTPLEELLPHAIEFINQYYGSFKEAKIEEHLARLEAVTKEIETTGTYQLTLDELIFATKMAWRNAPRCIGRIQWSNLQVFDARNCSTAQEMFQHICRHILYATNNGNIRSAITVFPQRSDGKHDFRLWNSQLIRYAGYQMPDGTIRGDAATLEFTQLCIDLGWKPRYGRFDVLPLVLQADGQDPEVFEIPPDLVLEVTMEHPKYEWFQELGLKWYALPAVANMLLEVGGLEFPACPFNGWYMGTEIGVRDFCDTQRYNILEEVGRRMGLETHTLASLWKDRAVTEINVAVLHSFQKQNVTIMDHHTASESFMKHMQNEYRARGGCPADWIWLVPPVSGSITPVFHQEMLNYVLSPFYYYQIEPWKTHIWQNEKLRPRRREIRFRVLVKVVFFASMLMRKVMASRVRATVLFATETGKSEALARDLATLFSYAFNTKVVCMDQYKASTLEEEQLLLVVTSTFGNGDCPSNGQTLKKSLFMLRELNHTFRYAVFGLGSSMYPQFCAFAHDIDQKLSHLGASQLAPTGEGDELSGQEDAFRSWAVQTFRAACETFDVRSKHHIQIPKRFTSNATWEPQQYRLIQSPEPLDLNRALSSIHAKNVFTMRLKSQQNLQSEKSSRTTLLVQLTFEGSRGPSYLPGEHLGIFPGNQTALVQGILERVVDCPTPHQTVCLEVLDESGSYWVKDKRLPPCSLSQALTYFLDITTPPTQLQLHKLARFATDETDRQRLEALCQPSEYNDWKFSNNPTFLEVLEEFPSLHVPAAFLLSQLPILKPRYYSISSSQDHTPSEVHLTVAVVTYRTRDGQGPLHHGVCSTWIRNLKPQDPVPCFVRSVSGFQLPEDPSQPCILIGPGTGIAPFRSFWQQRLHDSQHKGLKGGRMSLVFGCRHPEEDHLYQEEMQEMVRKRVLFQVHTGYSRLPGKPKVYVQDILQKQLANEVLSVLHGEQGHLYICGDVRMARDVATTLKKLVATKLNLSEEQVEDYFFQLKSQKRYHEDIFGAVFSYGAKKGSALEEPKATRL", "assay": "In vitro iNOS inhibitory effect (iNOS activity detection kit) in LPS-stimulated BV-2 cells", "type": "cell-based", "settings": "compound 0.01-10 μM added 4 hours before LPS 500 ng/mL for 24 hours, FIG. 1, read-out: iNOS inhibition IC50", "method": "Experimental materials: BV-2 cells (purchased from Shanghai Cell Bank, Chinese Academy of Sciences), DMEM cell culture fluid (Sigma), fetal bovine serum (Gibico), 96-well cell culture plate (Corning), DMSO (Sigma), LPS (Sigma), iNOS activity detection kit (Beyotime), test drug 4-trifluoromethyl-cinnamoyl-4-fluoro-L-phenylalanine prepared in Example 1, and microplate reader.\nThen according to the group, the drug or blank culture fluid was added to the corresponding group for culture for 4 hours. Finally, except the blank group, each group was stimulated with LPS with a final concentration of 500 ng/mL for 24 hours. The iNOS activity assay was performed according to the requirements of the iNOS detection kit."}, "[2]": {"assay": "Physicochemical properties: solubility in solvents"}, "[3]": {"tested_on": "MCAO ischemia-reperfusion rats", "assay": "Rat ischemia-reperfusion (MCAO) in-vivo model with TTC staining", "design": "species or system Male SD rats", "settings": "2 mg/kg by gavage daily, FIG. 3", "description": "Experimental materials: Male SD rats, weighing 250-300 g, provided by the Model Animal Research Center of Nanjing University and raised in the Experimental Animal Center of China Pharmaceutical University; triphenyl tetrazolium chloride (TTC) and butyphthalide purchased from Sigma; test drug 4-trifluoromethyl-cinnamoyl-4-fluoro-L-phenylalanine prepared in Example 1 (Compound 2 shown), and test drug 4-hydroxy-3-methoxycinnamoyl-L-tyrosine (Compound 1 shown).\nExperimental method: The rats were randomly divided into 5 groups, i.e., a blank group, a model group (MCAO group), an MCAO+4-hydroxy-3-methoxycinnamoyl-L-tyrosine (Compound 1 shown, 2 mg/kg) group, an MCAO+4-trifluoromethyl-cinnamoyl-4-fluoro-L-phenylalanine (Compound 2 shown, 2 mg/kg) group and an MCAO+positive drug butyphthalide (5 mg/kg) group. After successful modeling, administration of different doses of compounds by gavage was carried out every day for 15 consecutive days. After the administration, brains were harvested, subjected to TTC staining, and photographed and recorded.\nThe effect is better than that of the positive drug and 4-hydroxy-3-methoxycinnamoyl-L-tyrosine (Compound 1 shown)."}},
  "data": [
    {"compound": "O=C(/C=C/c1ccc(C(F)(F)F)cc1)N[C@@H](Cc1ccc(F)cc1)C(=O)O", "note": "[Compound 2, 4-trifluoromethyl-cinnamoyl-4-fluoro-L-phenylalanine]", "values": [
      {"measurement": "dyskinesia of the Parkinsonian mice (rota-rod)", "setting": "[1]", "result": "effectively alleviate the dyskinesia"},
      {"measurement": "running time of the Parkinsonian mice (rota-rod latency)", "setting": "[1]", "result": "increase the running time"},
      {"measurement": "IC50", "setting": "iNOS", "result": 110, "unit": "nM"},
      {"measurement": "solubility", "setting": "[2]; dichloromethane", "result": "soluble"},
      {"measurement": "solubility", "setting": "[2]; methanol, acetone, ethyl acetate", "result": "easily soluble"},
      {"measurement": "solubility", "setting": "[2]; petroleum ether, water", "result": "insoluble"},
      {"measurement": "size of cerebral infarction caused by ischemia reperfusion (TTC staining)", "setting": "[3]", "result": "effectively reduce the increase in the size of cerebral infarction"}
    ]}
  ]
}
